Here are results for 12 molecules from ChEMBL document CHEMBL1146436, “Bioactive alkaloids from Illigera luzonensis” (1997).

Assay [1] in a line: Antiplatelet activity against ADP-induced rabbit platelet aggregation assessed as platelet aggregation at 25 ug/ml preincubated for 3 mins by turbidimetric method relative to control. The class given is functional, Oryctolagus cuniculus.
Assay [2] can be described thus: Antiplatelet activity against collagen-induced rabbit platelet aggregation assessed as platelet aggregation at 25 ug/ml preincubated for 3 mins by turbidimetric method relative to control. The class given is functional, Oryctolagus cuniculus.
Assay [3] is described as follows: Antiplatelet activity against PAF-induced rabbit platelet aggregation assessed as platelet aggregation at 25 ug/ml preincubated for 3 mins by turbidimetric method relative to control. The class given is functional, Oryctolagus cuniculus.
Assay [4] can be described thus: Antiplatelet activity against arachidonic acid-induced rabbit platelet aggregation assessed as platelet aggregation at 100 ug/ml preincubated for 3 mins by turbidimetric method relative to control. The class given is functional, Oryctolagus cuniculus.
Assay [5] is described as follows: Antiplatelet activity against arachidonic acid-induced rabbit platelet aggregation assessed as platelet aggregation at 25 ug/ml preincubated for 3 mins by turbidimetric method relative to control. The class given is functional, Oryctolagus cuniculus.
Assay [6] relates to Aorta. As to the kind of experiment: Vasorelaxant activity against 80 mM potassium-induced contractions in rat thoracic aorta assessed as muscle contractions at 100 ug/mL pretreated for 15 mins before potassium administration relative to control. The class given is functional. Set-up: scale not given: the % may be the effect or the level left.
The nature of assay [7]: Antiplatelet activity against PAF-induced rabbit platelet aggregation assessed as platelet aggregation at 100 ug/ml preincubated for 3 mins by turbidimetric method relative to control. In kind it is functional, Oryctolagus cuniculus.
The nature of assay [8]: Antiplatelet activity against ADP-induced rabbit platelet aggregation assessed as platelet aggregation at 100 ug/ml preincubated for 3 mins by turbidimetric method relative to control. In kind it is functional, Oryctolagus cuniculus.
For assay [9], the system named is Aorta. As to the kind of experiment: Vasorelaxant activity against 3 uM norepinephrine -induced tonic contractions in rat thoracic aorta assessed as muscle contractions at 100 ug/mL pretreated for 15 mins before norepinephrine administration relative to control. In kind it is functional. Set-up: scale not given: the % may be the effect or the level left.
For assay [10], the system named is Aorta. As to the kind of experiment: Vasorelaxant activity against 3 uM norepinephrine -induced phasic contractions in rat thoracic aorta assessed as muscle contractions at 100 ug/mL pretreated for 15 mins before norepinephrine administration relative to control. In kind it is functional. Set-up: scale not given: the % may be the effect or the level left.
The nature of assay [11]: Antiplatelet activity against arachidonic acid-induced rabbit platelet aggregation assessed as platelet aggregation at 5 ug/ml preincubated for 3 mins by turbidimetric method relative to control. The class given is functional, Oryctolagus cuniculus.
The nature of assay [12]: Antiplatelet activity against arachidonic acid-induced rabbit platelet aggregation assessed as platelet aggregation at 20 ug/ml preincubated for 3 mins by turbidimetric method relative to control. In kind it is functional, Oryctolagus cuniculus.
A short description of assay [13]: Antiplatelet activity against arachidonic acid-induced rabbit platelet aggregation assessed as platelet aggregation at 10 ug/ml preincubated for 3 mins by turbidimetric method relative to control. The class given is functional, Oryctolagus cuniculus.
The nature of assay [14]: Antiplatelet activity against arachidonic acid-induced rabbit platelet aggregation assessed as platelet aggregation at 50 ug/ml preincubated for 3 mins by turbidimetric method relative to control. The class given is functional, Oryctolagus cuniculus.
The test system of assay [15] is Aorta. As to the kind of experiment: Effect on resting tension in rat thoracic aorta at 100 ug/mL pretreated for 15 mins. The class given is functional, tissue-based.
The nature of assay [16]: Antiplatelet activity against collagen-induced rabbit platelet aggregation assessed as platelet aggregation at 100 ug/ml preincubated for 3 mins by turbidimetric method relative to control. The class given is functional, Oryctolagus cuniculus.
Assay [17] in a line: Antiplatelet activity against arachidonic acid-induced rabbit platelet aggregation assessed as platelet aggregation at 2 ug/ml preincubated for 3 mins by turbidimetric method relative to control. In kind it is functional, Oryctolagus cuniculus.
Assay [18] can be described thus: Antiplatelet activity against arachidonic acid-induced rabbit platelet aggregation assessed as platelet aggregation at 1 ug/ml preincubated for 3 mins by turbidimetric method relative to control. In kind it is functional, Oryctolagus cuniculus.
Assay [19] has as its system Aorta. As to the kind of experiment: Vasorelaxant activity against 3 uM norepinephrine -induced tonic contractions in rat thoracic aorta assessed as muscle contractions at 1 uM pretreated for 15 mins before norepinephrine administration relative to control. Set-up: scale not given: the % may be the effect or the level left. In kind it is functional.
In assay [20] the test system is Aorta. Briefly: Vasorelaxant activity against 3 uM norepinephrine -induced phasic contractions in rat thoracic aorta assessed as muscle contractions at 1 uM pretreated for 15 mins before norepinephrine administration relative to control. The class given is functional. Set-up: scale not given: the % may be the effect or the level left.
Assay [21] has as its system Aorta. As to the kind of experiment: Vasorelaxant activity against 80 mM potassium-induced contractions in rat thoracic aorta assessed as muscle contractions at 1 uM pretreated for 15 mins before potassium administration relative to control. In kind it is functional. Set-up: scale not given: the % may be the effect or the level left.

The structures appear in SMILES notation. Active and inactive are the calls of the source. No cut-off for these calls is given here.

`CC(=O)Oc1ccccc1C(=O)O` [ASPIRIN]: the Activity stood at 77.9% in assay [1]; 87.8% in assay [2]; 90.4% in assay [3]; 0% in assay [4]; 0% in [5].
For `COc1cc2c(cc1O)C[C@@H]1NCCc3cc4c(c-2c31)OCO4` [ACTINODAPHNINE], the Activity with Aorta [6] was 41.9%; in [7], 0%; in assay [8] it was 0%; with Aorta [9], 15.5%; in the assay on Aorta [10], 40.6%; in [11], 80.3%. In addition, the Activity in assay [12] is 42.7%; in assay [13], 60.5%; in [14] it was 0%; in assay [4], 0%; in assay [16], 0%. In the assay with Aorta [15], the result was inactive.
Turning to `COc1ccc2c(c1O)-c1c3c(cc4c1[C@H](C2)N(C)CC4)OCO3` [(S)-BULBOCAPNINE], the Activity in assay [7] is reported as 86.6%; in [8], 86.8%; in assay [4], 89.3%; in assay [16], 83.2%.
For the molecule `COc1c(O)ccc2c1-c1c(OC)c(O)cc3c1[C@H](C2)NCC3` [HERNOVINE], the Activity in assay [7] worked out at 64.1%; in assay [8] it was 87.2%; in assay [4], 47%; in assay [16] it was 0%.
In the case of `O=C1c2ccccc2-c2c3c(cc4ccnc1c24)OCO3` [LIRIODENINE], the Activity is listed as 5.4% in [1], 5.3% in assay [2], 84.1% in assay [3] and 40.5% in assay [5].
In the case of `COc1cc2c(cc1OC)-c1c3c(cc4ccnc(c14)C2=O)OCO3` [DICENTRINONE], the Activity is on record as 111.1% in the assay with Aorta [6], 64% in the assay on Aorta [9] and 89.7% in the assay with Aorta [10]. In addition, in the assay on Aorta [15], the outcome was inactive.
Regarding `COc1ccc2c(c1O)-c1c3c(cc4c1[C@H](C2)NCC4)OCO3` [LAUNOBINE], the Activity in assay [7] worked out at 70.7%; in assay [8], 84.2%; in assay [4], 11.8%; in assay [16], 29.9%.
As to `COc1cc2c(cc1O)C[C@H]1c3c(cc4c(c3-2)OCO4)CCN1C` [CASSYTHICINE], the Activity in the assay on Aorta [6] worked out at 112.9%; in [7], 68.1%; in assay [8], 0%; in the assay on Aorta [9] it was 98.9%; in the assay on Aorta [10], 225%; in [11], 51.4%. The Activity in [12] is listed as 0%; in assay [13], 16.2%; in [17], 69.1%; in assay [4] it was 0%; in assay [16] it was 0%; in assay [18], 82.5%.
Regarding `COc1cc2nc(N3CCN(C(=O)c4ccco4)CC3)nc(N)c2cc1OC` [PRAZOSIN], the Activity in the assay with Aorta [19] and in the assay on Aorta [20] was 0% each time.
As for `COC(=O)C1=C(C)NC(C)=C(C(=O)OC)C1c1ccccc1[N+](=O)[O-]` [NIFEDIPINE], the Activity in the assay with Aorta [21] is 0%.
In the case of `COc1ccc2c(c1OC)-c1c3c(cc4c1[C@H](C2)N(C)CC4)OCO3`, the Activity in [7] is listed as 75.1%; in assay [8], 47.9%; in [11], 83.4%; in assay [12] it was 50.4%; in assay [13], 72.5%; in [14], 0%. Also, the Activity in [4] and in assay [16] was 0% each time.
As to `COc1cc2c(cc1OC)-c1c3c(cc4c1[C@H](C2)N(C)CC4)OCO3` [DICENTRINE], the Activity in [7] turned out to be 7.6%; in assay [8], 4%; in assay [11] it was 77.7%; in assay [12] it was 0%; in [13], 55.1%; in assay [17] it was 83.4%. For the same molecule, the Activity in assay [4] is 0%; in assay [16], 3.2%.
